Results from patent publication US20070207946A1, “Dipeptidyl peptidase IV inhibitors and their uses for lowering blood pressure levels” (priority 2001, published 2007).
Where two headings read alike, the source gives them in different places. Square brackets hold non-standard residues; d marks the D form. Peptide text beside a SMILES is read from it. * marks the point of attachment. pY = N[C@@H](Cc1ccc(OP(=O)(O)O)cc1)C(=O)O; aIle = CC[C@@H](C)[C@H](N)C(=O)O; Aoc(2) = CCCCCC[C@H](N)C(=O)O; Tle = CC(C)(C)[C@H](N)C(=O)O; Orn = NCCC[C@H](N)C(=O)O; Aze = O=C(O)[C@@H]1CCN1; Nva = CCC[C@H](N)C(=O)O; Abu = CC[C@H](N)C(=O)O; Bn = c1ccc(C*)cc1

Tests used:
[1] = target: T1, dipeptidyl peptidase IV from porcine kidney (Sus scrofa, UniProt P22411); assay: Ki determination of DPIV inhibition; format: biochemical; conditions: substrate glycylprolyl-4-nitroaniline, HEPES pH7.6, 30° C.
T1 construct: dipeptidyl peptidase IV from porcine kidney; from tissue; host or cells: porcine kidney

[2] = target: purified porcine DPIV (Sus scrofa, UniProt P22411); assay: Determination of IC50 values (DPIV, Gly-Pro-pNA); format: biochemical; conditions: Gly-Pro-pNA 0.4 mM, HEPES pH7.6, 30° C.
Protocol: 100 μl inhibitor stock solution were mixed with 100 μl buffer (HEPES pH7.6) and 50 μl substrate (Gly-Pro-pNA, final concentration 0.4 mM) and preincubated at 30° C. Reaction was started by addition of 20 μl purified porcine DPIV. Formation of the product pNA was measured at 405 nm over 10 min using the HTS 7000Plus plate reader (Perkin Elmer) and slopes were calculated. The final inhibitor concentrations ranged between 1 mM and 30 nM. For calculation of IC50 GraFit 4.0.13 (Erithacus Software) was used.

[3] = system: F344 rats; assay: Chronic intragastric infusion via osmotic minipumps over two weeks - blood pressure; format: in vivo, rat
Protocol: Reduced expression of the ectopeptidase DPIV and lack of DPIV-like activity in mutant F344 rats lacking DPIV enzymic activity and expression results in a lowered blood pressure. Mutant F344 substrains lacking DPIV enzymic activity and wild-type-like F344 were tested.

[4] = target: T2, PepT1 (Oryctolagus cuniculus, UniProt P36836); assay: Transport characteristics at PepT1-expressing oocytes of X. leavis, two-electrode voltage clamp; format: cell-based
T2 sequence (P36836 1-707): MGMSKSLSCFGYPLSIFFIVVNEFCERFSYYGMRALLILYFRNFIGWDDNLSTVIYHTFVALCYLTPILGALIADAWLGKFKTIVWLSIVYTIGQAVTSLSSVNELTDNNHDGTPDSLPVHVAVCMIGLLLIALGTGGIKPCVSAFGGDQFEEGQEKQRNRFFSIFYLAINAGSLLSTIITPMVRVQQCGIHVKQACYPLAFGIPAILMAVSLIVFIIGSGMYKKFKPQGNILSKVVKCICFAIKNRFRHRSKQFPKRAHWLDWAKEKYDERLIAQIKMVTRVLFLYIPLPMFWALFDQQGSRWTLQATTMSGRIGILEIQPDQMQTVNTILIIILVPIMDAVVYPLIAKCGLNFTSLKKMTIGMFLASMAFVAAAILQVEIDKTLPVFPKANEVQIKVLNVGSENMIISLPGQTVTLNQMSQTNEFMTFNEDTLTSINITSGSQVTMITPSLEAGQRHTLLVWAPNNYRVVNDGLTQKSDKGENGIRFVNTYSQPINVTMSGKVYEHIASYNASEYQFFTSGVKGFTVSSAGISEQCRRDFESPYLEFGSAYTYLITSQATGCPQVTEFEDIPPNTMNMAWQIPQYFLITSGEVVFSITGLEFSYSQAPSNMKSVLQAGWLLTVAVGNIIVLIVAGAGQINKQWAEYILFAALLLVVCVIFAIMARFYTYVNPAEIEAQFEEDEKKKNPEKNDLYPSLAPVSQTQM
From the text: (§1) Side chain-modified glutamyl thiazolidines having a structure H-Glu(X)-Thia were synthesised, with polyethylene glycol or glycine oligomers of various chain lengths being used as X (see Method A of example for description of synthesis). The binding characteristics of those derivatives and their transportability by the peptide transporter PepT1 were investigated.

[5] = target: T2, PepT1; assay: Inhibition of binding of 3H-D-Phe-Ala to PepT1-expressing P. pastoris cells; conditions: read-out: EC50: concentration inhibiting the binding of 3H-D-Phe-Ala to PepT1-expressing P. pastoris cells by 50%
From the text: as §1

[6] = target: T3, plasma DPIV activity (Rattus norvegicus, UniProt P14740); assay: DPIV inhibiting activity after intravasal and oral administration to Wistar rats; format: in vivo; conditions: for inhibition at 100 mg/kg: rat; for in vivo DPIV-inhibition at tmax, i.v. / in vivo DPIV-inhibition at tmax, p.o.: dose 100 mg/kg
T3 construct: from tissue; host or cells: plasma of Wistar rats
Protocol: Male Wistar rats (Shoe: Wist(Sho)) with a body weight ranging between 250 and 350 g were purchased from Tierzucht Schönwalde (Schönwalde, Germany).
Animals were single-caged under conventional conditions with controlled temperature (22±2° C.) on a 12/12 hours light/dark cycle (light on at 06:00 AM). Standard pelleted chow (ssniff® Soest, Germany) and tap water acidified with HCl were allowed ad libitum.
After ≧one week of adaptation at the housing conditions, catheters were implanted into the carotid artery of Wistar rats under general anaesthesia (i.p. injection of 0.25 ml/kg b.w. Rompun® [2%], BayerVital, Germany and 0.5 ml/kg b.w. Ketamin 10, Atarost GmbH & Co., Twistringen, Germany). The animals were allowed to recover for one week. The catheters were flushed with heparin-saline (100 IU/ml) three times per week. In case of catheter dysfunction, a second catheter was inserted into the contra-lateral carotid artery of the respective rat. After one week of recovery from surgery, this animal was reintegrated into the study. In case of dysfunction of the second catheter, the animal was withdrawn from the study. A new animal was recruited and the experiments were continued in the planned sequence, beginning at least 7 days after catheter implantation.
After overnight fasting, 100 μl samples of heparinised arterial blood were collected at −30, −5, and 0 min. […] In the case of oral administration, an additional volume of 1 ml saline was injected into the arterial catheter. In the case of infra-arterial administration, the catheter was immediately flushed with 30 μl saline and an additional 1 ml of saline was given orally via the feeding tube.
All blood samples were collected into ice cooled Eppendorf tubes (Eppendorf-Netheler-Hinz, Hamburg, Germany) filled with 10 μl 1M sodium citrate buffer (pH 3.0) for plasma DPIV activity measurement. Eppendorf tubes were centrifuged immediately (12000 rpm for 2 min, Hettich Zentrifuge EBA 12, Tuttlingen; Germany): The plasma fractions were stored on ice until analysis or were frozen at −20° C. until analysis. All plasma samples were labelled with the following data:
The assay mixture for determination of plasma DPIV activity consisted of 80 μl reagent and 20 μl plasma sample. […] The DPIV activity was expressed in mU/ml.
All parameters were analysed in a descriptive manner including mean and SD.

[7] = intra-vasal (intra-arterial) route

purified porcine DPIV, sequence (P22411 whole entry): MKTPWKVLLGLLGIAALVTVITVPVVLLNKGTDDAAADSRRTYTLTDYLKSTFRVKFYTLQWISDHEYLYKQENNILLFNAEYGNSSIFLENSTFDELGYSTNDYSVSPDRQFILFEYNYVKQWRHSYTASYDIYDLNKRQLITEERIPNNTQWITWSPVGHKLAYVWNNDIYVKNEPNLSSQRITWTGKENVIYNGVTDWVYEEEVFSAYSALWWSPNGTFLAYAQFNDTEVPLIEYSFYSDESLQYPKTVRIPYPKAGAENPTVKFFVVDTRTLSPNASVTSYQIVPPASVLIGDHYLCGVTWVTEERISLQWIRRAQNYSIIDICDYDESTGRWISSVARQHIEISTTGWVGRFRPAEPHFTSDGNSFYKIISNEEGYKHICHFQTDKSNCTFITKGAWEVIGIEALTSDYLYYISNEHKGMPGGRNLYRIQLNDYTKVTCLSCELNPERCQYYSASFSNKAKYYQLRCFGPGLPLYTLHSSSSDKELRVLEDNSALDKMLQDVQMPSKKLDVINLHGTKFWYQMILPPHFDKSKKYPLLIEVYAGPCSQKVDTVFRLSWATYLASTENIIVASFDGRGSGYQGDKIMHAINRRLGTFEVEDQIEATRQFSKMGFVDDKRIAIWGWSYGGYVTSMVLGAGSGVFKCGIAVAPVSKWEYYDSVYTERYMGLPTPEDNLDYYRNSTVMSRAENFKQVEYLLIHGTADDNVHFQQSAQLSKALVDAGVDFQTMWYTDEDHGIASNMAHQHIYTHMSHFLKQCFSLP
T1 sequence (P22411 whole entry): as above
T3 sequence (P14740 38-767 limits assumed): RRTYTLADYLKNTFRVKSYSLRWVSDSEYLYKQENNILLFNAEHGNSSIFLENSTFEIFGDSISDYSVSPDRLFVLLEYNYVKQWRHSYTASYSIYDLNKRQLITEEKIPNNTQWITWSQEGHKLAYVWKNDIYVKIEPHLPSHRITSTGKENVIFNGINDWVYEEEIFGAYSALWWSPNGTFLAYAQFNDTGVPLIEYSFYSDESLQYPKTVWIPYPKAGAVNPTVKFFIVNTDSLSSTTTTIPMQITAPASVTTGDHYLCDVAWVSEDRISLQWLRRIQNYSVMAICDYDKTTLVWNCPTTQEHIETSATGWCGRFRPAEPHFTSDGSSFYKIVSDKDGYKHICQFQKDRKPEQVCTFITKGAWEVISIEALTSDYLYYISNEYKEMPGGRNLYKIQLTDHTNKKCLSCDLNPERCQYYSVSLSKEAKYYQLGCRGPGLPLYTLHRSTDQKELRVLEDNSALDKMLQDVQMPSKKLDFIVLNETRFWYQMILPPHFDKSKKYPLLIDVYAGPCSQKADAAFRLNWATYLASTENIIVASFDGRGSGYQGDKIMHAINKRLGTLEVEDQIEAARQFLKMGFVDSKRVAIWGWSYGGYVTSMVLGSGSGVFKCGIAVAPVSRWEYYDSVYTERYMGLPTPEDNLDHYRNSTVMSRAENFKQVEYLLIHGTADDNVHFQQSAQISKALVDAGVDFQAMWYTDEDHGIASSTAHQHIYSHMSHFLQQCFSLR

Row | Ki [1] | IC50 [2] | Compound | also measured
1 | 3.08 µM |  | CC(C)[C@H](NC(=O)[C@@H]1CCCN1C(=O)[C@@H](N)C(C)(C)C)C(=O)O [t-butyl-Gly-Pro-Val] (H-[Tle]-Pro-Val-OH; N-terminus and C-terminus assumed) | 
2 | 9.54 µM |  | CC[C@@H](C)[C@H](NC(=O)[C@@H]1CCCN1C(=O)[C@@H](N)C(C)C)C(=O)O [Val-Pro-allo-Ile] | 
3 | 12.6 µM |  | CCCCCC[C@H](N)C(=O)N1CCC[C@H]1C(=O)N[C@H](C(=O)O)[C@@H](C)CC [AOA-Pro-Ile, 2-Amino octanoic acid-Pro-Ile] (H-[Aoc(2)]-Pro-Ile-OH) | 
4 | 0.00105 µM | 0.0102 µM | Val-Pro-acyloxy methyl ketone | 
5 |  | 1000 µM | Val-cyclohexyl ketone | 
6 |  |  | CC[C@H](C)[C@H](N)C(=O)N1CCCC1C#N.O=C(O)C(F)(F)F (stereo partly drawn) [isoleucyl cyano pyrrolidine TFA] | blood pressure [3]: dose-dependently reduced
7 |  |  | N[C@@H](CCC(=O)O)C(=O)N1CCSC1 [H-Glu-thiazolidine] | Imax, inward currents generated by the transport [4]: 35 ± 13 nA
8 |  | 34.3 µM | CC[C@H](N)C(=O)N1CCC[C@H]1C(=O)N[C@H](C(=O)O)[C@@H](C)CC [Abu-Pro-Ile] (H-[Abu]-Pro-Ile-OH; N-terminus and C-terminus assumed) | 
9 | 13.1 µM | 49 µM | CC(C)C(N)C(=O)C1CCCC1 (stereo not drawn) [Val-cyclopentyl ketone] | 
10 | 14 µM |  | NC(CC(=O)O)C(=O)N1CCCC1 (stereo not drawn) [H-Asp-pyrrolidine] | 
11 | 56.8 µM | 293 µM | CCC(C)C(N)C(=O)C1CCCCC1 (stereo not drawn) [Ile-cyclohexyl ketone] | 
12 | 21.6 µM | 67.8 µM | CC[C@H](C)[C@H](NC(=O)[C@@H]1CCCN1C(=O)[C@@H](N)COCc1ccccc1)C(=O)O [Ser(Bzl)-Pro-Ile] (H-Ser(Bn)-Pro-Ile-OH; N-terminus and C-terminus assumed) | 
13 | 0.000536 µM | 0.0179 µM | Val-Pro-benzoyl methyl ketone | 
14 |  | 72.8 µM | CC[C@H](C)[C@H](NC(=O)[C@@H]1CCCN1C(=O)[C@@H]1CCN1)C(=O)O [Aze-Pro-Ile] (H-[Aze]-Pro-Ile-OH; N-terminus and C-terminus assumed) | 
15 | 6.17 µM | 24.9 µM | CCC[C@H](N)C(=O)N1CCC[C@H]1C(=O)N[C@H](C(=O)O)[C@@H](C)CC [Nva-Pro-Ile] (H-[Nva]-Pro-Ile-OH; N-terminus and C-terminus assumed) | 
16 |  |  | CCC(C)C(N)C(=O)C1CCCC1 (stereo not drawn) [Ile-cyclopentyl ketone, 1-cyclopentyl-3-methyl-1-oxo-2-pentanaminium chloride] | inhibition at 100 mg/kg ([6]; iv, intra-vasal (intra-arterial) route, read-out: in vivo DPIV-inhibition at tmax, i.v.): 34%; inhibition at 100 mg/kg ([6]; oral, read-out: in vivo DPIV-inhibition at tmax, p.o.): 15%
17 |  |  | Br.CC(C)[C@H](NC(=O)[C@H](C)N)C(=O)N1CCC[C@H]1C(=O)COC(=O)c1ccccc1 [Ala-Val-Pro-benzoyl-methyl ketone, H-Ala-Val-Pro-CH2O—C(O)Ph*HBr] | in vivo DPIV-inhibition at tmax, i.v. [6, 7]: 97%; in vivo DPIV-inhibition at tmax, p.o. ([6]; oral): 76%
18 | 273 µM | 273 µM | CC(C)(C)C(N)C(=O)C1CCCCC1 (stereo not drawn) [t-butyl-Gly-cyclohexyl ketone] | 
19 | 0.0373 µM | 0.138 µM | Val-Pro-benzothiazol methyl ketone | 
20 |  |  | Br.CC(=O)OCC(=O)[C@@H]1CCCN1C(=O)[C@@H](NC(=O)[C@H](C)N)C(C)C [Ala-Val-Pro-acyloxy methyl ketone, H-Ala-Val-Pro-CH2O—C(O)CH3*HBr] | in vivo DPIV-inhibition at tmax, i.v. [6, 7]: 89%; in vivo DPIV-inhibition at tmax, p.o. ([6]; oral): 86%
21 |  | 216 µM | CC[C@H](C)[C@H](NC(=O)[C@@H]1CCCN1C(=O)[C@@H](N)CCCN)C(=O)O [Orn-Pro-Ile] (H-[Orn]-Pro-Ile-OH; N-terminus and C-terminus assumed) | 
22 |  | 112 µM | CC(C)[C@@H](NC(=O)[C@@H]1CCCN1C(=O)[C@@H](N)C(C)(C)C)C(=O)O [t-butyl-Gly-Pro-D-Val] (H-[Tle]-Pro-[dV]-OH; N-terminus and C-terminus assumed) | 
23 | 35 µM |  | NC(Cc1c[nH]cn1)C(=O)N1CCCC1 (stereo not drawn) [H-His-pyrrolidine] | 
24 | 0.0476 µM | 0.579 µM | CC(=O)C1CCCN1C(=O)C(N)C(C)C (stereo not drawn) [Val-Pro-methyl ketone] | 
25 |  |  | CC[C@H](C)[C@H](NC(=O)[C@@H]1CCCN1C(=O)[C@@H](N)Cc1ccc(OP(=O)(O)O)cc1)C(=O)O [Tyr(P)-Pro-Ile] (H-[pY]-Pro-Ile-OH; N-terminus and C-terminus assumed) | in vivo DPIV-inhibition at tmax, p.o. ([6]; oral): no inhibition
26 | 18.9 µM | 82.3 µM | CC[C@H](C)[C@H](N)C(=O)N1CCC[C@H]1C(=O)N[C@H](C(=O)O)C(C)(C)C [Ile-Pro-t-butyl-Gly] (H-Ile-Pro-[Tle]-OH; N-terminus and C-terminus assumed) | 
27 | 5.22 µM |  | CC[C@@H](C)[C@H](NC(=O)[C@@H]1CCCN1C(=O)[C@@H](N)[C@@H](C)CC)C(=O)O [Ile-Pro-allo-Ile] | 

Row | Compound | Ki [1] | IC50 [2] | also measured
28 | CCC(C)C(N)C(=O)N1CC1 (stereo not drawn) [H-Ile-azididine] | 3.1 µM |  | 
29 | H-Glu(PEG)-Thia | 3.11 µM |  | EC50 [5]: > 10 mM
30 | CC[C@@H](C)[C@H](NC(=O)[C@@H]1CCCN1C(=O)[C@@H](N)Cc1ccc(O)cc1)C(=O)O [Tyr-Pro-allo-Ile] (H-Tyr-Pro-[aIle]-OH; N-terminus and C-terminus assumed) | 18.2 µM | 64.1 µM | 
31 | N[C@@H](CCC(=O)NO)C(=O)N1CCSC1 [H-Glu(NHOH)-thiazolidine] | 1.7 µM |  | Imax, inward currents generated by the transport [4]: 42 ± 11 nA; EC50 [5]: 3.18 mM
